Results published in patent US4524135A.
Converted amounts (≈) assume the structure as drawn. “And” between values parts separate entries of the source, which are not always exact repeats. Equal entries are not always repeated.

Assays:
Streptococcus Group 9960 = conditions: agar dilution
[1] = tested on: Streptococcus pyogenes C203; test: Agar-dilution test
[2] = tested on: Staphylococcus aureus X400; conditions: agar dilution; methicillin-resistant strain
[3] = tested on: Staphylococcus aureus X1.1; test: Agar-dilution test
Staphylococcus aureus = test: Experimental bacterial infection in mice; type: in vivo; conditions: subcutaneous, two doses
Text: (§1) The results of in vivo tests to evaluate the effectiveness of the derivatives against experimental bacterial infections in mice are given in Table III. […] 81, 233-235 (1961)].

Streptococcus pyogenes = test: Experimental bacterial infection in mice; type: in vivo; conditions: two doses
Text: as §1

[4] = tested on: Micrococcus luteus ATCC 9341; test: Agar-plate disc-diffusion test; type: cell-based; conditions: 1 mg/ml suspension in water, 7-mm disc, 24-48 hours at 25-37° C.
[5] = tested on: Streptococcus Group D X66; test: Agar-dilution test
Toxicity in mice = conditions: mouse, in vivo, iv, administered intravenously
Text: | ^a Administered intravenously

[6] = tested on: Staphylococcus epidermidis EPI2; test: Agar-dilution test
[7] = tested on: Staphylococcus aureus ATCC 6738P; test: Agar-plate disc-diffusion test; type: cell-based; conditions: 1 mg/ml suspension in water, 7-mm disc, 24-48 hours at 25-37° C.
[8] = tested on: Staphylococcus epidermidis EPI1; conditions: agar dilution
[9] = tested on: Staphylococcus aureus V41; test: Agar-dilution test; type: cell-based; conditions: penicillin-resistant strain
[10] = tested on: Bacillus subtilis ATCC 6633; test: Agar-plate disc-diffusion test; type: cell-based; conditions: 1 mg/ml suspension in water, 7-mm disc, 24-48 hours at 25-37° C.
[11] = tested on: Streptococcus pneumoniae Park I; test: Agar-dilution test; type: cell-based

| SMILES | MIC (Streptococcus Group 9960) [µg/mL] | MIC [1] | MIC [2] | MIC [3] | ED50 (Staphylococcus aureus) | ED50 (Streptococcus pyogenes; oral) [mg/kg × 2] | ED50 (Streptococcus pyogenes; subcutaneous) [mg/kg × 2] | Size of Zone of Inhibition [4] [mm] | MIC [5] [µg/mL] | LD50 (Toxicity in mice) [mg/kg] | MIC [6] | Size of Zone of Inhibition [7] [mm] | MIC [8] | MIC [9] | Size of Zone of Inhibition [10] [mm] | Size of Zone of Inhibition ([10]; grown on minimal nutrient agar) [mm] | MIC [11] |
| --- | --- | --- | --- | --- | --- | --- | --- | --- | --- | --- | --- | --- | --- | --- | --- | --- | --- |
| CCCCCCCCCC(=O)N[C@@H](Cc1c[nH]c2ccccc12)C(=O)N[C@@H](CC(N)=O)C(=O)N[C@@H](CC(=O)O)C(=O)N[C@@H]1C(=O)NCC(=O)N[C@@H](CCCN)C(=O)N[C@@H](CC(=O)O)C(=O)N[C@H](C)C(=O)N[C@@H](CC(=O)O)C(=O)NCC(=O)N[C@H](CO)C(=O)N[C@@H]([C@H](C)CC(=O)O)C(=O)N[C@@H](CC(=O)c2ccccc2N)C(=O)O[C@@H]1C [Example 6] | 2 (≈ 1.23 µM) | 0.25 µg/mL and 0.125 µg/mL | 2 µg/mL and 1 µg/mL | 1 µg/mL and 0.5 µg/mL | 0.28 mg/kg × 2 | 66 | 0.03 | 22 | 16 (≈ 9.87 µM) | > 300 | 1 µg/mL and 0.5 µg/mL | 24 | 2 µg/mL and 1 µg/mL | 1 µg/mL and 0.5 µg/mL | 20 | 29 | 1 µg/mL and 0.5 µg/mL |
| CCCCCCCCCC(=O)N[C@@H](Cc1ccccc1)C(=O)N[C@@H](Cc1c[nH]c2ccccc12)C(=O)N[C@@H](CC(N)=O)C(=O)N[C@@H](CC(=O)O)C(=O)N[C@@H]1C(=O)NCC(=O)N[C@@H](CCCN)C(=O)N[C@@H](CC(=O)O)C(=O)N[C@H](C)C(=O)N[C@@H](CC(=O)O)C(=O)NCC(=O)N[C@H](CO)C(=O)N[C@@H]([C@H](C)CC(=O)O)C(=O)N[C@@H](CC(=O)c2ccccc2N)C(=O)O[C@@H]1C [Example 7, NTrp-[N-(n-Decanoyl)-L-phenylalanyl]-A-21978C Nucleus] | 2 (≈ 1.13 µM) | 0.25 µg/mL (≈ 0.141 µM) | 1 µg/mL (≈ 0.566 µM) | 0.5 µg/mL (≈ 0.283 µM) | 0.7 mg/kg × 2 and 0.98 mg/kg × 2 | > 200 | 0.39 | 24 | 8 (≈ 4.53 µM) | 600 | 0.5 µg/mL (≈ 0.283 µM) | 30 | 1 µg/mL (≈ 0.566 µM) | 0.5 µg/mL (≈ 0.283 µM) | 22 | 31 | 0.5 µg/mL (≈ 0.283 µM) |
| CCCCCCCCCCCCOc1ccc(C(=O)N[C@@H](Cc2c[nH]c3ccccc23)C(=O)N[C@H](CC(N)=O)C(=O)N[C@@H](CC(=O)O)C(=O)N[C@@H]2C(=O)NCC(=O)N[C@@H](CCCN)C(=O)N[C@@H](CC(=O)O)C(=O)N[C@H](C)C(=O)N[C@@H](CC(=O)O)C(=O)NCC(=O)N[C@H](CO)C(=O)N[C@@H]([C@H](C)CC(=O)O)C(=O)N[C@@H](CC(=O)c3ccccc3N)C(=O)O[C@@H]2C)cc1 [Example 8, NTrp -p-(n-dodecyloxy)benzoyl-A-21978C Nucleus] | 1 (≈ 0.57 µM) | 0.25 µg/mL (≈ 0.142 µM) | 2 µg/mL (≈ 1.14 µM) | 1 µg/mL (≈ 0.57 µM) | 3.35 mg/kg × 2 | > 200 | 0.31 | 18 | 2 (≈ 1.14 µM) | 67.5 | 2 µg/mL (≈ 1.14 µM) | 20 | 4 µg/mL (≈ 2.28 µM) | 1 µg/mL (≈ 0.57 µM) | 13 | 20 |  |
